Data: patent publication US12173018B2, “Penicillin-binding protein inhibitors” (priority 2018, dated 2024)
pEC50: −log10 of the molar value. Like-named read-outs stand apart in the source and are kept apart here.

Tests used:
E. coli PBP4 = E. coli PBP4 (Escherichia coli (strain K12), UniProt P24228); assay: E. coli PBP4 Bocillin-FL fluorescence polarization competition binding assay
Excerpt: To determine the ability of boronic acid-based test PBP inhibitors to bind Penicillin Binding Proteins (PBPs), Bocillin-FL (fluorescently-labeled penicillin V; ThermoFisher Scientific) was used in a fluorescence polarization (FP) competition binding assay to assess inhibitor binding to PBP2, PBP3 or PBP4 from Escherichia coli. PBPs were cloned and purified as described previously (King, D. T, et al., ACS Infectious Diseases 2015, 1, 175-184). To establish assay conditions for competition binding, an enzyme titration/saturation binding experiment was initially performed. Bocillin-FL was prepared at 0.2 μM in a buffer comprised of 50 mM Hepes (pH 8.0), 300 mM NaCl and 5% (v/v) glycerol. Saturation binding was performed by mixing 40 μl of PBP solutions ranging in concentrations from 0-12 μM with 40 μl of the 0.2 μM Bocillin-FL solution, in individual wells of a black 384-well microplate. FP was measured immediately upon mixing (Excitation, 490 nm; Emission, 520 nm; g-factor, 0.96), using a Cytation3 (BioTek) microplate reader and measured continuously for up to 120 minutes. […] Assays (80 μl final volume) were performed with PBPs at a final concentration of 1.5 μM, Bocillin-FL at 0.1 μM and beta-lactam concentrations that ranged from 0-1000 μM. […] Bocillin-FL was added and the FP immediately measured for 60 minutes (90 minutes for PBP2). The beta-lactam potency was reported as the concentration of beta-lactam required to reduce binding of Bocillin-FL by […] (EC50). […] Binding assays for boronic acid PBP inhibitors were performed in an identical fashion.

E. coli PBP2 = E. coli PBP2 (Escherichia coli (strain K12), UniProt P0AD65); assay: E. coli PBP2 Bocillin-FL fluorescence polarization competition binding assay; conditions: fluorescence polarization competition binding with Bocillin-FL; read-out: E. coli K12 PBP2 Potency (EC50)
Summary of the method: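 Purified PBP2 at 1.5 μM final was preincubated with boronic acid inhibitor, then Bocillin-FL added to 0.1 μM final in Hepes pH 8.0/NaCl/glycerol buffer. Polarization was monitored 90 min; the concentration halving probe binding is reported as EC50.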

P. aeruginosa PAO1 = assay: Broth microdilution MIC, P. aeruginosa PAO1; type: cell-based; conditions: Pseudomonas aeruginosa; P. aeruginosa PAO1, broth microdilution; read-out: MIC P. aeruginosa PAO1
Summary of the method: (§1)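 Following CLSI guidance, growth inhibition is measured in Mueller-Hinton broth with divalent cations. Inoculum 5×10^5 CFU/mL; incubation 16-20 hours, 37° C; endpoint is visual absence of growth.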

A. baumannii ATCC 19606 = assay: Broth microdilution MIC, A. baumannii ATCC 19606; type: cell-based; conditions: Acinetobacter baumannii, ATCC19606; A. baumannii ATCC 19606, broth microdilution; read-out: MIC A. baumannii ATCC 19606
Summary of the method: as §1

P. aeruginosa ATCC 35151 = assay: microbe, parasite or virus in culture; type: cell-based; conditions: Pseudomonas aeruginosa, ATCC35151; hyper-permeable P. aeruginosa ATCC 35151; read-out: MIC P. aeruginosa ATCC 35151
Summary of the method: as §1

[1] = fluorescence polarization competition binding with Bocillin-FL, read-out: E. coli K12 PBP4 Potency (EC50)

Chain of E. coli PBP4 (P24228 21-477): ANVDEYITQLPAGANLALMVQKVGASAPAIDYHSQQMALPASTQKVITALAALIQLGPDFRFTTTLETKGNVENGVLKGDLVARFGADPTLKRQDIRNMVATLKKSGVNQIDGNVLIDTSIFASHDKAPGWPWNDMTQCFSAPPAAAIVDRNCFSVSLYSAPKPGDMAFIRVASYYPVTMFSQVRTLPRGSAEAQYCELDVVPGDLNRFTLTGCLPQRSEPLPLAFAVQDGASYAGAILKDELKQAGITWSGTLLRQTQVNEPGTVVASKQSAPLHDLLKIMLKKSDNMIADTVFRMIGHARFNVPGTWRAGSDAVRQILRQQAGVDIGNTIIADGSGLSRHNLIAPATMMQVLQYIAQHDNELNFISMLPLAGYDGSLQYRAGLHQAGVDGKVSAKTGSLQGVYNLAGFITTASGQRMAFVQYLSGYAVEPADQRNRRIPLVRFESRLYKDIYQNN
Chain of E. coli PBP2 (P0AD65 whole entry): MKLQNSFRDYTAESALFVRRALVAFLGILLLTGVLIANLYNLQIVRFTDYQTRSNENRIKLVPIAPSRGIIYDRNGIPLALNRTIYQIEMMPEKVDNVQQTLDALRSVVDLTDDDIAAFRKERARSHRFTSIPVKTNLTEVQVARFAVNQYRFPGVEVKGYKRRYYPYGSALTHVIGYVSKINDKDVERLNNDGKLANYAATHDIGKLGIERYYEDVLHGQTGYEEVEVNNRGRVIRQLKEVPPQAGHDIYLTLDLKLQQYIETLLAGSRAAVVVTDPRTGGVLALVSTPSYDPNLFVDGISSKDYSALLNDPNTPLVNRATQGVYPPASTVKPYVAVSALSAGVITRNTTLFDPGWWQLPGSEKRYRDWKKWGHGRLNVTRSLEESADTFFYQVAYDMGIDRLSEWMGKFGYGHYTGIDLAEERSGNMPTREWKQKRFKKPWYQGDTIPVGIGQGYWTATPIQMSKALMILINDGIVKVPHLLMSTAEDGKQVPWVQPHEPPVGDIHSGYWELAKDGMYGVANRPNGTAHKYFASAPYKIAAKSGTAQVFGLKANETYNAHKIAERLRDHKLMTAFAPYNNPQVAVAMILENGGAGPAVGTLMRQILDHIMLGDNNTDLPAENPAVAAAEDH

SMILES	pEC50 (E. coli PBP4; [1])	pEC50 (E. coli PBP2)	pEC50 (E. coli PBP4)	MIC (P. aeruginosa PAO1)	MIC (A. baumannii ATCC 19606)	MIC (P. aeruginosa ATCC 35151)
CCN1CCN(C(=O)NC(C(=O)N[C@H]2Cc3cccc(C(=O)O)c3OB2O)c2csc(N)n2)C(=O)C1=O (stereo partly drawn) [Example 5, (3R)-3-(2-(2-aminothiazol-4-yl)-2-(4-ethyl-2,3-dioxopiperazine-1-carboxamido)acetamido)-2-hydroxy-3,4-dihydro-2H-benzo[e][1,2]oxaborinine-8-carboxylic acid]	< 3.30	3.30 to 4.52	–	–	–	–
CCN1CCN(C(=O)NC(C(=O)N[C@H]2Cc3cc(F)cc(C(=O)O)c3OB2O)c2csc(N)n2)C(=O)C1=O (stereo partly drawn) [Example 16, (3R)-3-(2-(2-aminothiazol-4-yl)-2-(4-ethyl-2,3-dioxopiperazine-1-carboxamido)acetamido)-6-fluoro-2-hydroxy-3,4-dihydro-2H-benzo[e][1,2]oxaborinine-8-carboxylic acid]	< 3.30	< 3.30	–	–	–	–
CCN1CCN(C(=O)NC(C(=O)N[C@H]2Cc3cccc(C(=O)O)c3OB2O)c2ccc(O)cc2)C(=O)C1=O (stereo partly drawn) [Example 27, (3R)-3-(2-(4-ethyl-2,3-dioxopiperazine-1-carboxamido)-2-(4-hydroxyphenyl)acetamido)-2-hydroxy-3,4-dihydro-2H-benzo[e][1,2]oxaborinine-8-carboxylic acid]	< 3.30	< 3.30	–	–	–	–
CCN1CCN(C(=O)NC(C(=O)N[C@H]2Cc3cccc(C(=O)O)c3OB2O)c2cnc(N)s2)C(=O)C1=O (stereo partly drawn) [Example 51, (3R)-3-(2-(2-aminothiazol-5-yl)-2-(4-ethyl-2,3-dioxopiperazine-1-carboxamido)acetamido)-2-hydroxy-3,4-dihydro-2H-benzo[e][1,2]oxaborinine-8-carboxylic acid]	< 3.30	< 3.30	–	–	–	–
CCCN1CCN(C(=O)NC(C(=O)N[C@H]2Cc3cccc(C(=O)O)c3OB2O)c2ccc(O)c(O)c2Cl)C(=O)C1=O (stereo partly drawn) [Example 82, (3R)-3-(2-(2-chloro-3,4-dihydroxyphenyl)-2-(2,3-dioxo-4-propylpiperazine-1-carboxamido)acetamido)-2-hydroxy-3,4-dihydro-2H-benzo[e][1,2]oxaborinine-8-carboxylic acid]	< 3.30	–	–	–	–	–
CCN1CCN(C(=O)NC(C(=O)N[C@H]2Cc3cccc(C(=O)O)c3OB2O)c2ccc(O)cc2F)C(=O)C1=O (stereo partly drawn) [Example 87, (3R)-3-(2-(4-ethyl-2,3-dioxopiperazine-1-carboxamido)-2-(2-fluoro-4-hydroxyphenyl)acetamido)-2-hydroxy-3,4-dihydro-2H-benzo[e][1,2]oxaborinine-8-carboxylic acid]	< 3.30	< 3.30	–	–	–	–
CCN1CCN(C(=O)NC(C(=O)N[C@H]2Cc3cccc(C(=O)O)c3OB2O)c2cc(O)c(O)cc2F)C(=O)C1=O (stereo partly drawn) [Example 90, (3R)-3-(2-(4-ethyl-2,3-dioxopiperazine-1-carboxamido)-2-(2-fluoro-4,5-dihydroxyphenyl)acetamido)-2-hydroxy-3,4-dihydro-2H-benzo[e][1,2]oxaborinine-8-carboxylic acid]	< 3.30	< 3.30	–	–	–	–
CCN1CCN(C(=O)N[C@@H](C(=O)N[C@H]2Cc3ccc(F)c(C(=O)O)c3OB2O)[C@@H](C)O)C(=O)C1=O [Example 110, (R)-3-((2R,3R)-2-(4-ethyl-2,3-dioxopiperazine-1-carboxamido)-3-hydroxybutanamido)-7-fluoro-2-hydroxy-3,4-dihydro-2H-benzo[e][1,2]oxaborinine-8-carboxylic acid]	< 3.30	< 3.30	–	–	–	–
CCN1CCN(C(=O)NC(C(=O)N[C@H]2Cc3cccc(C(=O)O)c3OB2O)c2cccc(O)n2)C(=O)C1=O (stereo partly drawn) [Example 117, (3R)-3-(2-(4-ethyl-2,3-dioxopiperazine-1-carboxamido)-2-(6-hydroxypyridin-2-yl)acetamido)-2-hydroxy-3,4-dihydro-2H-benzo[e][1,2]oxaborinine-8-carboxylic acid]	< 3.30	< 3.30	–	–	–	–
CCN1CCN(C(=O)NC(C(=O)N[C@H]2Cc3cccc(C(=O)O)c3OB2O)c2cnc(O)cn2)C(=O)C1=O (stereo partly drawn) [Example 121, (3R)-3-(2-(4-ethyl-2,3-dioxopiperazine-1-carboxamido)-2-(5-hydroxypyrazin-2-yl)acetamido)-2-hydroxy-3,4-dihydro-2H-benzo[e][1,2]oxaborinine-8-carboxylic acid]	< 3.30	< 3.30	–	–	–	–
O=C(O)c1c(F)ccc2c1OB(O)[C@@H](NC(=O)C(NC(=O)N1CCN(CCF)C(=O)C1=O)c1ccc(O)c(O)c1Cl)C2 (some centres unmarked) [Example 131]	–	< 3.30	3.30 to 4.52	0.5 to 1 µg/mL	8 to 16 µg/mL	< 0.25 µg/mL
CCN1CCN(C(=O)NC(C(=O)N[C@H]2Cc3ccc(F)c(C(=O)O)c3OB2O)c2cc(O)c(O)cc2F)C(=O)C1=O (stereo partly drawn) [Example 136, (3R)-3-(2-(4-ethyl-2,3-dioxopiperazine-1-carboxamido)-2-(2-fluoro-4,5-dihydroxyphenyl)acetamido)-7-fluoro-2-hydroxy-3,4-dihydro-2H-benzo[e][1,2]oxaborinine-8-carboxylic acid]	< 3.30	–	–	8 to 16 µg/mL	2 to 4 µg/mL	0.5 to 1 µg/mL
CCN1CCN(C(=O)NC(C(=O)N[C@H]2Cc3ccc(F)c(C(=O)O)c3OB2O)c2ncc(O)cc2F)C(=O)C1=O (stereo partly drawn) [Example 145, (3R)-3-(2-(4-ethyl-2,3-dioxopiperazine-1-carboxamido)-2-(3-fluoro-5-hydroxypyridin-2-yl)acetamido)-7-fluoro-2-hydroxy-3,4-dihydro-2H-benzo[e][1,2]oxaborinine-8-carboxylic acid]	< 3.30	–	–	> 128 µg/mL	> 128 µg/mL	8 to 16 µg/mL
